Like-named read-outs stand apart in the source and are kept apart here.
Legend:
[1] = test system: L. (L.) amazonensis promastigote forms; experiment: In vitro antileishmanial activity on promastigote forms (MTT); type: cell-based, Leishmania (Leishmania) amazonensis; conditions: 72 h
[2] = test system: L. (L.) amazonensis intracellular amastigotes; experiment: In vitro antileishmanial activity on intracellular amastigotes in peritoneal macrophages; type: cell-based, Leishmania (Leishmania) amazonensis; conditions: for IC50: BALB/c peritoneal macrophages, 24 h, Giemsa count, read-out: L. amazonensis Intracellular Amastigotes (Ama.) IC50
Experimental: Peritoneal macrophages were obtained from BALB/c mice in RPMI 1640 culture medium (Sigma-Aldrich® São Paulo, Brazil). After exclusion of inviable cells with trypan blue staining (Sigma-Aldrich® São Paulo, Brazil), cells were transferred to 24-well plates with 13 mm round glass coverslips (10^6 cells/well) and kept at 37 °C/5% CO2. After adhesion for one hour, cells were infected with promastigote forms of L. (L.) amazonensis in the stationary phase (4 × 10^6 cells/well). After 4 h of incubation, samples (complexes 1–7) were added in six replicates (6.25–50.0 µg·mL^−1). […] Coverslips were removed after 24 h, subjected to a dehydration battery with increasing concentrations of acetone: xylol and stained with Giemsa (Sigma-Aldrich®, São Paulo, Brazil) diluted 1:10 in distilled water. After mounting on slides, 200 cells per coverslip were analyzed by light microscopy and the average number of amastigotes/cells was calculated. IC50 was determined using a non-linear dose–response regression curve as described above. The concentrations of complexes were compared by Two-way ANOVA followed by the Tukey test.

NIH/3T3 fibroblasts = experiment: Cytotoxicity in mammalian cells (sulforhodamine B); type: cell-based; conditions: 48 h, read-out: Fibroblasts NIH/3T3 (Fib.) IC50
Experimental: The cytotoxic effect of compounds 1–7 was evaluated on NIH/3T3 fibroblasts obtained from the Rio de Janeiro Cell Bank (Duque de Caxias, Brazil). Fibroblasts were seeded at […] in 96-well plates. After 24 h of fixation, cells were incubated for 48 h with 1–7 at 2.5–250 µg·mL^−1, in three replicates. Cell growth was evaluated using the sulforhodamine B colorimetric method, and the optical with absorbances read on the PT-READER microplate instrument (Spectramax 190, Molecular Devices, Sunnyvale, CA, USA) at 540 nm. […] The growth inhibition percentage-GI (%) of each test sample was calculated in Microsoft Office Excel 2007 software. IC50 was determined graphically in the Microcal Origin Version 6.00 program. The selectivity index (SI) was calculated as the ratio between the cytotoxicity on cells (IC50) and the activity on the parasite forms (IC50).

[3] = test system: L. (L.) amazonensis promastigote forms; experiment: Flow cytometry for apoptosis and membrane permeability (PE Annexin V / 7-AAD); type: cell-based, Leishmania (Leishmania) amazonensis; conditions: for 7-AAD-stained parasites / An. (PE Annexin V-stained parasites) / An./7-AAD (double stained parasites) / Unst. (unstained parasites): treatment at IC50
From the text: PE Annexin V staining precedes the loss of membrane integrity observed in the final stages of cell death, resulting from either apoptotic or necrotic processes. PE Annexin V is used in conjunction with the vital dye 7-Amino-Actinomycin (7-AAD) to identify early apoptotic cells (7-AAD negative, PE Annexin V positive). Viable cells with intact membranes exclude 7-AAD, but the membranes of dead and damaged cells are permeable to 7-AAD. Cells that are in late apoptosis or already dead are both PE Annexin V and 7-AAD positive. […] Heat-killed parasites (60 °C bath/10 min) were used as positive control, and untreated parasites were used as negative control. Promastigotes were stained with 5 µL of PE Annexin V and 5 µL 7-AAD (PE Annexin V Apoptosis Detection Kit I, BD Biosciences^TM, Franklin Lakes, NJ, USA) and immediately subjected to flow cytometric analysis (BD FACSCanto^TM II). Then, 10,000 events were captured in the region previously determined to correspond to the parasites. Fluorescence was quantified and histograms were generated.

[4] = test system: L. (L.) amazonensis promastigote forms; experiment: Flow cytometry for mitochondrial membrane potential (TMRE); type: cell-based, Leishmania (Leishmania) amazonensis; conditions: for reduction in TMRE labeling (ΔΨm): treatment at IC50, relative to nontreated parasites
[5] = Leishmania amazonensis, Peritoneal macrophage, in Mus musculus
[6] = MTT, read-out: L. amazonensis Promastigotes (Pro.) IC50
[7] = 48 h after treatment at the calculated IC50
[8] = 72 h after treatment at the calculated IC50

Row | SMILES | IC50 [1, 6] [nM] | IC50 (NIH/3T3 fibroblasts) [nM] | 7-AAD-stained parasites ([3]; 24 h) [%] | An. (PE Annexin V-stained parasites) ([3]; 24 h) [%] | An./7-AAD (double stained parasites) ([3]; 24 h) [%] | Unst. (unstained parasites) ([3]; 24 h) [%] | 7-AAD-stained parasites ([3]; 48 h) [%] | An. (PE Annexin V-stained parasites) ([3]; 48 h) [%] | An./7-AAD (double stained parasites) ([3]; 48 h) [%] | Unst. (unstained parasites) ([3]; 48 h) [%] | 7-AAD-stained parasites ([3]; 72 h) [%] | An. (PE Annexin V-stained parasites) ([3]; 72 h) [%] | An./7-AAD (double stained parasites) ([3]; 72 h) [%] | Unst. (unstained parasites) ([3]; 72 h) [%] | TMRE-labeled promastigotes [4, 7] [%] | reduction in TMRE labeling (ΔΨm) ([4]; 72 h) [%] | TMRE-labeled promastigotes [4, 8] [%] | IC50 [2] [nM] | other results
1 | C[C@@H]1[C@H](O)[C@@H](C)/C=C/C=C/C=C/C=C/C=C/C=C/C=C/[C@H](O[C@@H]2O[C@H](C)[C@@H](O)[C@H](N)[C@@H]2O)C[C@@H]2O[C@](O)(C[C@@H](O)C[C@@H](O)[C@H](O)CC[C@@H](O)C[C@@H](O)CC(=O)O[C@H]1C)C[C@H](O)[C@H]2C(=O)O [Amphotericin B, reference compound] | – | – | – | – | – | – | – | – | – | – | – | – | – | – | – | – | – | – | IC50 ([1]; Leishmania amazonensis, MTT, read-out: L. amazonensis Promastigotes (Pro.) IC50): 145 nM; IC50 [2, 5]: 198 nM
2 | CC(=O)C1=C([O-])C=C2Oc3c(C(C)=O)c(O)c(C)c(O)c3C2(C)C1=O.CC(=O)C1=C([O-])C=C2Oc3c(C(C)=O)c(O)c(C)c(O)c3C2(C)C1=O.CC(=O)C1=C([O-])C=C2Oc3c(C(C)=O)c(O)c(C)c(O)c3C2(C)C1=O.O.O.O.[Gd+3] (stereo not drawn) [GdL3·3H2O 3] | 1500 | 26500 | 0.4 | 0.7 | 0.6 | 98.4 | 12.7 | 2.4 | 6 | 78.8 | 3.2 | 2.6 | 7.4 | 86.8 | 46.8 | 24.5 | 59.2 | 5520 | reduction in cell viability ([3]; 48 h after treatment at IC50): 17.4%; reduction in TMRE labeling (ΔΨm) ([4]; 48 h): 36.2%
3 | CC(=O)C1=C([O-])C=C2Oc3c(C(C)=O)c(O)c(C)c(O)c3C2(C)C1=O.CC(=O)C1=C([O-])C=C2Oc3c(C(C)=O)c(O)c(C)c(O)c3C2(C)C1=O.CC(=O)C1=C([O-])C=C2Oc3c(C(C)=O)c(O)c(C)c(O)c3C2(C)C1=O.O.O.O.[La+3] (stereo not drawn) [LaL3·3H2O 7] | 1490 | 10900 | 0.4 | 0.7 | 0.5 | 98.3 | 1.6 | 1.8 | 3.3 | 93.3 | 5.6 | 2.4 | 10.0 | 82.0 | 76.0 | 22.3 | 82.0 | 4580 | Intracellular amastigote activity, arbitrary scale ([2]; class by IC50): active
4 | CC(=O)C1=C([O-])C=C2Oc3c(C(C)=O)c(O)c(C)c(O)c3C2(C)C1=O.CC(=O)C1=C([O-])C=C2Oc3c(C(C)=O)c(O)c(C)c(O)c3C2(C)C1=O.CC(=O)C1=C([O-])C=C2Oc3c(C(C)=O)c(O)c(C)c(O)c3C2(C)C1=O.O.O.O.[Nd+3] (stereo not drawn) [NdL3·3H2O 5] | 910 | 19700 | 0.3 | 0.7 | 0.5 | 98.4 | 1.6 | 1.4 | 3.3 | 93.8 | 7.7 | 2.5 | 10.0 | 79.8 | 70.1 | 11.35 | 60.9 | 2830 | –
5 | N=C(N)c1ccc(OCCCCCOc2ccc(C(=N)N)cc2)cc1 [Pentamidine, reference compound] | 1490 | – | – | – | – | – | – | – | – | – | – | – | – | – | – | – | – | – | IC50 ([1]; Leishmania amazonensis, read-out: L. amazonensis Promastigotes (Pro.) IC50, 72 h, MTT): 1500 nM; IC50 [2, 5]: 920 nM
6 | CC(=O)C1=C([O-])C=C2Oc3c(C(C)=O)c(O)c(C)c(O)c3C2(C)C1=O.CC(=O)C1=C([O-])C=C2Oc3c(C(C)=O)c(O)c(C)c(O)c3C2(C)C1=O.CC(=O)C1=C([O-])C=C2Oc3c(C(C)=O)c(O)c(C)c(O)c3C2(C)C1=O.O.O.O.O.[Sm+3] (stereo not drawn) [SmL3·4H2O 2] | 1260 | 20000 | 10.2 | 3.1 | 5.5 | 81.2 | 2.8 | 1.7 | 3.4 | 92.1 | 4.0 | 2.5 | 7.6 | 85.8 | 43.5 | 41.7 | 45.7 | 5230 | reduction in viability ([3]; 24 h after treatment at IC50): 17.2%; reduction in TMRE labeling (ΔΨm) ([4]; 48 h): 40.7%
7 | CC(=O)C1=C([O-])C=C2Oc3c(C(C)=O)c(O)c(C)c(O)c3C2(C)C1=O.CC(=O)C1=C([O-])C=C2Oc3c(C(C)=O)c(O)c(C)c(O)c3C2(C)C1=O.CC(=O)C1=C([O-])C=C2Oc3c(C(C)=O)c(O)c(C)c(O)c3C2(C)C1=O.O.O.[Tb+3] (stereo not drawn) [TbL3·2H2O 6] | 2.3 | 17500 | 0.2 | 0.8 | 0.6 | 98.3 | 1.2 | 1.3 | 3.0 | 94.5 | 6.4 | 2.6 | 10.1 | 80.9 | 70.2 | – | 69.5 | 7520 | –

Source: publication PMC10779311, “Antileishmanial Activity, Toxicity and Mechanism of Action of Complexes of Sodium Usnate with Lanthanide Ions: Eu(III), Sm(III), Gd(III), Nd(III), La(III) and Tb(III)” (International Journal of Molecular Sciences, 2023)
